Assay results from patent US20240307386A1 (priority 2018, published 2024).

Legend:
[1] = test system: NMDA receptor currents in mPFC neurons; assay: NMDA-induced currents in rat mPFC slices, whole-cell patch clamp; type: cell-based
Source text: (§1) Combined administration of the antipsychotic, olanzapine, and the SSRI, fluoxetine, similarly induces rapid antidepressant activity in humans and animals (Tohen et al., 2010); likewise, combined application of olanzapine and fluoxetine is required to induce AMPA receptor currents in vitro.

[2] = test system: AMPA receptor currents in mPFC neurons; assay: AMPA-induced currents in rat mPFC slices, whole-cell patch clamp; type: cell-based
Source text: as §1

[3] = test system: AKT (at Threonine 308); assay: Phosphorylation of mTOR pathway proteins in rat PFC: AKT; type: in vivo; conditions: 1 hour and 24 hours after one i.p. injection; ketamine 30 mg/kg, Formula A 3 mg/kg
[4] = test system: mTOR (at Serine 2448); assay: Phosphorylation of mTOR pathway proteins in rat PFC: mTOR; type: in vivo; conditions: one i.p. injection; ketamine 30 mg/kg, Formula A 3 mg/kg
[5] = test system: P70s6 kinase (at Threonine 389); assay: Phosphorylation of mTOR pathway proteins in rat PFC: P70s6 kinase; type: in vivo; conditions: over 24 hours after one i.p. injection; ketamine 30 mg/kg, Formula A 3 mg/kg
[6] = test system: mTORC1 signaling pathway; assay: mTORC1 signaling pathway in mPFC of adult rats, dose range study; type: in vivo, rat; conditions: Formula A 1 to 8 mg/kg i.p.; ketamine 30 mg/kg; 60 min, 90 min or 24 hours
[7] = Clinical studies in patients with acute exacerbated schizophrenia; type: in vivo, human; conditions: 60 mg P.O. once daily, up to 28 days
Source text: Social avoidance can be a critical and debilitating symptom in patients suffering from anxiety disorders, especially social anxiety disorder, as well as in patients suffering from traumatic anxiety disorders. Social avoidance is often one of the key determinants of whether a person with a severe anxiety disorder is capable of maintaining familial relationships or employment relationships. […] Negative symptoms of schizophrenia can be divided into two categories: emotional experience (e.g., emotional withdrawal, passive social withdrawal, active social avoidance) and emotional expression (e.g., blunted effect, poor rapport, lack of spontancity, and motor retardation). […] These are the symptoms that are most highly correlated with interpersonal functioning.

[8] = molecular target: 5-HT2A (Homo sapiens (Human), UniProt P28223)
[9] = molecular target: D2 (Homo sapiens (Human), UniProt P14416)
[10] = test system: 5-HT2 receptor; assay: DOI-induced head twitch model in mice; type: in vivo; conditions: p.o., 0.5 hr before s.c. DOI
[11] = 40-minute infusion, total dose 0.5 mg/kg; after 24 hours; cited from earlier work
[12] = bath applied 3-100 nM, 5 min later

CN1CCN2c3c(cccc31)[C@@H]1CN(CCCC(=O)c3ccc(F)cc3)CC[C@@H]12 [Formula A, lumateperone]
NMDA-induced currents compared to control ([1]; 30 nM): ~150%
NMDA currents [1, 12]: enhanced
AMPA-induced currents compared to control ([2]; 30 nM, alone and with SCH 23390 (1 μM)): Substantially the same results
AMPA currents [2, 12]: enhanced
increase in phosphorylation of AKT at thr308 [3]: ~50%
change in mTOR phosphorylation [4]: Neither ketamine nor the Compound of Formula A results in a change
p70s6K phosphorylation [5]: progressively increases
activation of mTORC1 signaling pathway in mPFC (p-Akt thr308, p-P70S6K) [6]: rapidly activates the mTORC1 signaling pathway
symptoms of emotional experience compared to placebo [7]: significant and unexpected improvement
Ki [8]: 10 nM
Ki [9]: 49 nM

CNCCC(Oc1ccc(C(F)(F)F)cc1)c1ccccc1 (stereo not shown) [fluoxetine]
activity at 0.1 µM ([2]; Rattus norvegicus, Neuron, 100 nM fluoxetine, read-out: AMPA-induced current, % of control): ~90%

O=C1CN2c3c(cccc3[C@@H]3CN(CCCOc4ccc(F)cc4)CC[C@@H]32)N1 [Example 1, (6bR,10aS)-8-(3-(4-fluorophenoxy)propyl)-6b,7,8,9,10,10a-hexahydro-1H-pyrido[3′,4′:4,5]pyrrolo[1,2,3-de]quinoxalin-2(3H)-one]
EC50 for reducing DOI-induced head twitches [10]: 0.44 mg/kg

CNC1(c2ccccc2Cl)CCCCC1=O (stereo not shown) [ketamine]
increase in phosphorylation of AKT at thr308 [3]: ~50%
change in mTOR phosphorylation [4]: Neither ketamine nor the Compound of Formula A results in a change
p70s6K phosphorylation [5]: transiently increase
activation of mTORC1 signaling pathway in mPFC (p-Akt thr308, p-P70S6K) [6]: rapidly activates the mTORC1 signaling pathway
ratings on the Hamilton Depression Rating Scale (HDRS) compared to placebo [11]: significantly improved

Cc1cc2c(s1)Nc1ccccc1N=C2N1CCN(C)CC1 [olanzapine]
activity at 0.003 µM ([2]; Rattus norvegicus, Neuron, 3 nM olanzapine alone, read-out: AMPA-induced current, % of control): ~100%
